Data taken from patent EP2871962B1, “WOOD PROTECTION AGAINST MICROORGANISMS BY LACCASE-CATALYSED IODINATION” (EMPA Eidgenössische Materialprüfungs- und Forschungsanstalt, priority 2012, dated 2013).

Columns and labels:
Trametes versicolor = test: Growth inhibition by iodinated and non-iodinated phenols on agar plates (Example 2); format: cell-based; conditions: ± standard deviation, n = 6, read-out: Growth inhibition, T. versicolor; for inhibition at 1000 µM: 1mM in 2% malt extract agar; for inhibition at 2000 µM: 2mM in 2% malt extract agar; for inhibition at 4000 µM: 4mM in 2% malt extract agar
Procedure: (§1) Vanillin and ethyl-vanillin (4 mM) were incubated in the presence of commercial T. versicolor laccase (250 mg per L), 0.1 mM mediator ABTS and 50 mM potassium iodide in citrate-phosphate buffer (pH 5.0) for 20 h at room temperature. The reaction vessels with a liquid volume of 1 L were aerated with pressurized air through a frit. Reaction products were extracted by addition of 250 mL ethyl-acetate, thorough mixing and subsequent separation of the organic phase. The solvent was removed in a rotary evaporator at 50°C under vacuum until solid products were obtained. Reaction products were re-dissolved in ethyl-acetate and analysed by HPLC-MS.
(§2) For biotests, iodo-vanillin and iodo-ethyl-vanillin were dissolved to a concentration of 0.4 M in DMSO (stock solution). The non-iodinated reference compounds (educts) vanillin and ethyl-vanillin were dissolved to a concentration of 0.1 M in ethanol. All compounds were evaluated on agar plates (Ø 90mm). The compounds were added to 2% malt extract agar after autoclaving to final concentrations of 1, 2 and 4 mM, respectively. Control plates contained similar amounts of DMSO or ethanol as added with stock solutions. Supplemented agar plates were inoculated in the centre with a mycelium agar disc (9-mm diameter) taken from the submargins of 14-day old cultures of the basidiomycetes Oligoporus placenta, Gloephyllum trabeum, Coniophora puteana, Trametes versicolor and the ascomycete Aureobasidium pullulans. Plates were incubated at 22 °C and 70% RH. The radial fungal growth was estimated by measuring the colony diameter, and the growth inhibition was expressed as percentage reduction of this value after similar incubation times. Growth inhibition data of 6 replicate plates per compound/control were arcsine transformed prior to statistical analysis (ANOVA) and back transformed to numerical values for visualization. Means were separated using Tukey's HSD (honestly significant difference) test at significance levels with P values of <0.05 and <0.001. The statistical package used for all analyses was SPSS (version 17.0; SPSS Inc., Chicago, IL).

Coniophora puteana = test: as above; format: cell-based; conditions: ± standard deviation, n = 6, read-out: Growth inhibition, C. puteana; for inhibition at 1000 µM: 1mM in 2% malt extract agar; for inhibition at 2000 µM: 2mM in 2% malt extract agar; for inhibition at 4000 µM: 4mM in 2% malt extract agar
Procedure: as §1, §2

Gloephyllum trabeum = test: as above; format: cell-based; conditions: Gloeophyllum trabeum, ± standard deviation, n = 6, read-out: Growth inhibition, G. trabeum; for inhibition at 1000 µM: 1mM in 2% malt extract agar; for inhibition at 2000 µM: 2mM in 2% malt extract agar; for inhibition at 4000 µM: 4mM in 2% malt extract agar
Procedure: as §1, §2

Oligoporus placenta = test: as above; format: cell-based; conditions: Rhodonia placenta, ± standard deviation, n = 6, read-out: Growth inhibition, O. placenta; for inhibition at 1000 µM: 1mM in 2% malt extract agar; for inhibition at 2000 µM: 2mM in 2% malt extract agar; for inhibition at 4000 µM: 4mM in 2% malt extract agar
Procedure: as §1, §2

Aureobasidium pullulans = test: as above; format: cell-based; conditions: ± standard deviation, n = 6; for inhibition at 1000 µM: 1mM in 2% malt extract agar; for inhibition at 2000 µM: 2mM in 2% malt extract agar; for inhibition at 4000 µM: 4mM in 2% malt extract agar
Procedure: as §1, §2

[1] = test system: Trametes versicolor laccase; test: Laccase-catalysed oxidation of iodide to tri-iodide with redox mediators (absorbance at 353 nm); format: biochemical
Procedure: The enzyme used in the study was a commercial laccase from Trametes versicolor (Sigma-Aldrich). […] Reactions were performed in transparent polymethyl methacrylate (PMMA) cuvettes or polystyrene micro titer plates. Change in absorbance (ΔA) at 420nm was recorded in intervals of 10sec for 3min. Samples with very high activities were diluted 10-fold with ddH2O before using them in the assay. Volumetric activities were calculated using an extinction coefficient (ε) of 0.036µmol^-1 1 cm^-1 (36000mol^-1 1 cm^-1) (22), according to the following equation (Δt in min, V in µl):
The laccase-catalysed oxidation of iodide (I^-) to iodine (I2) was monitored by the formation of triiodide (I3^-) at 353nm (laccase activity 0.12U ml^-1, 50mM iodide, citrate buffer pH 4.5, extinction coefficient of I3^- ε = 28000 mol^-1 1 cm^-1) (24, 17). […] Well-known synthetic (ABTS) and natural (acetosyringone [ACS], 4-hydroxybenzoic acid [HBA]) laccase mediators were tested (25, 26). […] The pH optima for mediator-enhanced oxidation of iodide were determined using the McIlvain citrate-phoshate buffer series.

[2] = test system: A. pullulans, C. picea, C. herbarum and D. pinicola; test: Biotests 2: blue stain test of treated wood (EN 152-2, modified); format: cell-based; conditions: 6 weeks of incubation, mean of stain categories 0-5 ±SE, n = 6, Mediator = ACS (50 µM)
Procedure: Wood specimens (batch 1: 10 x 10 x 5 mm, length x width x height used in the biotests 1 and batch 2: 20 x 15 x 10 mm used in the biotests 2), free of defects, were extracted longitudinally from boards of Norway spruce trees grown in Switzerland, in order to minimize the influence of natural variability. All specimens were conditioned at 23C°(±1°C) and 50% (±5%) relative humidity (RH) until they reached an equilibrium moisture content of approximately 8-10%. Prior to the wood treatment the specimens were sterilized by autoclaving for 20min at 121°C(±1°C).
The enzymatic wood iodination and polymerisation were carried out by dipping three wood specimens of batch 1 in 30ml or 12 wood specimens of batch 2 in 200ml reaction solution (pH 4-6) containing one of the phenolic compounds (4mM), or potassium iodide (1 or 50mM) in the presence of laccase ([…]) for 18h at room temperature. Furthermore, to test the suitability of HBA (5mM) as mediator some additional experiments were performed. The chemical preservative VP 7/ 260a containing IPBC and propiconazole as active agents was used as a benchmark with a final concentration of 5% (v/v). The wood specimens were treated and used in the biological tests, with the following modifications: • Control = Wood treated with buffer • L = Wood treated with laccase alone • L-M = Wood treated with laccase and mediator • Iso = Wood treated with isoeugenol • Iso-L = Wood treated with isoeugenol and laccase • Iso-L-M = Wood treated with isoeugenol, laccase and mediator • Thy = Wood treated with thymol • Thy-L = Wood treated with thymol and laccase • Thy-L-M = Wood treated with thymol and laccase and mediator • Ix = Wood treated with 1 or 50mM iodide (x = concentration of iodide) • Ix-L = Wood treated with 1 or 50mM iodide and laccase • Ix-L-M = Wood treated with 1 or 50mM iodide, laccase and mediator • VP7 = Wood treated with VP 7/ 260a (IPBC and propiconazole)
After the reaction all wood specimens of batch 1 had undergone a leaching procedure comprising five cycles of incubation in ddH2O (liquid volume min. 10 times the specimen volume, 100rpm, room temperature, 24h) and water exchange. Half of the wood specimens of batch 2 were exposed to leaching for two weeks including nine steps of water changing according to EN 84 (29), the other half was used without leaching in biotests.
The resistance of the treated wood against blue stain and wood decay fungi was determined in biotests 2 according to the European standards EN 152-2 (30) and EN 113 (31) with slight modifications. The EN 152 is a classical test for blue staining, originally intended to determine the effectiveness of a preservative treatment against blue stain in service. The treated wood samples were dipped into a spore suspension of A. pullulans, C. picea, C. herbarum and D. pinicola (cfu: > 10^5) and placed horizontally in a Kolle flask containing vermiculite (18g) which was inoculated additionally with 40ml of the spore suspension. The incubated specimens were stored in an incubation room at 22°C and 70% RH (6 weeks). After incubation the surface was evaluated by classifying the percentage of blue-stain discolouration from 0 to 5 according to Thwaites et al. (32) (Table 1). Table 1: Determination of the blue stain discoloration

Row | SMILES | inhibition at 1000 µM (Trametes versicolor) [%] | inhibition at 2000 µM (Trametes versicolor) [%] | inhibition at 4000 µM (Trametes versicolor) [%] | inhibition at 1000 µM (Coniophora puteana) [%] | inhibition at 2000 µM (Coniophora puteana) [%] | inhibition at 4000 µM (Coniophora puteana) [%] | inhibition at 1000 µM (Gloephyllum trabeum) [%] | inhibition at 2000 µM (Gloephyllum trabeum) [%] | inhibition at 1000 µM (Oligoporus placenta) [%] | inhibition at 2000 µM (Oligoporus placenta) [%] | inhibition at 4000 µM (Oligoporus placenta) [%] | other results
1 | COc1cc(C=O)cc(I)c1O [5-Iodo-Vanillin (commercial), 4-hydroxy-3-iodo-5-methoxybenzaldehyde] | 78.5 | 82 | 82.9 | 66.4 | 65.1 | 56.5 | 40.9 | 37.3 | 17.7 | 22.5 | 9.06 | inhibition at 4000 µM (Gloephyllum trabeum): 38.1%; inhibition at 1000 µM (Aureobasidium pullulans): 1.36 ± 1.4%; inhibition at 2000 µM (Aureobasidium pullulans): 7.31%; inhibition at 4000 µM (Aureobasidium pullulans): 1.51 ± 2.4%
2 | CCn1c(=NN=c2sc3cc(S(=O)(=O)O)ccc3n2CC)sc2cc(S(=O)(=O)O)ccc21 [ABTS, 2,2-azino-bis(3-ethylbenzothiazoline-6-sulfonic acid)] | – | – | – | – | – | – | – | – | – | – | – | laccase-catalysed tri-iodide formation ([1]; pH 4, 10µM mediator): 0.13 µM/min/mg
3 | COc1cc(C(C)=O)cc(OC)c1O [ACS, acetosyringone] | – | – | – | – | – | – | – | – | – | – | – | laccase-catalysed tri-iodide formation ([1]; pH 5, 50µM mediator): 0.89 µM/min/mg
4 | CCOc1cc(C=O)ccc1O [Ethylvanillin] | 10.2 | 29.9 | 11.4 | 0 | 21.1 ± 18.3 | 31.2 ± 21.2 | 15.8 | 23.9 | 0 | 0 | 0 | –
5 | O=C(O)c1ccc(O)cc1 [HBA, 4-hydroxybenzoic acid] | – | – | – | – | – | – | – | – | – | – | – | function as mediator ([1]; data not shown): not to have a function as mediator
6 | [I-].[K+] [I1, potassium iodide] | – | – | – | – | – | – | – | – | – | – | – | Blue stain discoloration, Leached ([2]; wood batch 2, leached (EN 84)): 3.7 ±0.4; Blue stain discoloration, Non-leached ([2]; wood batch 2, non-leached): 2.2 ±0.4
7 | COc1cc(C=O)ccc1O [Vanillin, 4-hydroxy-3-methoxybenzaldehyde] | 6.59 ± 4.2 | 18.8 | 42 | 18.2 ± 31.6 | 24.2 | 61.5 | 2.19 ± 1 | 13.4 | 0 | 11.8 ± 8.5 | 55.3 | inhibition at 4000 µM (Gloephyllum trabeum): 51.4%; inhibition at 1000 µM (Aureobasidium pullulans): 0%; inhibition at 2000 µM (Aureobasidium pullulans): 8.52 ± 14.8%; inhibition at 4000 µM (Aureobasidium pullulans): 17.9 ± 11.5%
